According to ChEMBL document CHEMBL1135978, “Three-dimensional quantitative structure-activity relationship of 1,4-dihydropyridines as antitubercular agents” (2002):

Tested on: Mycobacterium tuberculosis
Assay: Antitubercular activity against Mycobacterium tuberculosis H37Rv ATCC 27294
Assay type: functional
Set-up: concentration or dose not given beside the values; unit not given here

Structure (SMILES)	Inhibition
CC1=C(C(=O)Nc2ccccc2Cl)C(c2ccc(Cl)cc2Cl)C(C(=O)Nc2ccccc2Cl)=C(C)N1	-0.9079
CSc1ccc(C2C(C(=O)Nc3ccccc3)=C(C)NC(C)=C2C(=O)Nc2ccccc2)cc1	0.3474
CC1=C(C(=O)Nc2ccc([N+](=O)[O-])cc2)C(c2ccccc2Cl)C(C(=O)Nc2ccc([N+](=O)[O-])cc2)=C(C)N1	1.2787
CC1=C(C(=O)Nc2ccccc2Cl)C(c2ccccc2O)C(C(=O)Nc2ccccc2Cl)=C(C)N1	-1.1949
CC1=C(C(=O)Nc2ccc([N+](=O)[O-])cc2)C(c2ccc(Cl)cc2Cl)C(C(=O)Nc2ccc([N+](=O)[O-])cc2)=C(C)N1	1.3802
CC1=C(C(=O)Nc2cccc([N+](=O)[O-])c2)C(c2ccc(Cl)cc2Cl)C(C(=O)Nc2cccc([N+](=O)[O-])c2)=C(C)N1	1.6901
COc1ccccc1NC(=O)C1=C(C)NC(C)=C(C(=O)Nc2ccccc2OC)C1c1ccc(N(C)C)cc1	1.1233
CC1=C(C(=O)Nc2ccc(Cl)cc2)C(c2ccc(O)cc2)C(C(=O)Nc2ccc(Cl)cc2)=C(C)N1	0.575
CC1=C(C(=O)Nc2cc(C)ccc2C)C(c2ccccc2O)C(C(=O)Nc2cc(C)ccc2C)=C(C)N1	-0.432
COc1ccccc1NC(=O)C1=C(C)NC(C)=C(C(=O)Nc2ccccc2OC)C1c1cccc([N+](=O)[O-])c1	0.2498
CSc1ccc(C2C(C(=O)Nc3ccc(C)cc3C)=C(C)NC(C)=C2C(=O)Nc2ccc(C)cc2C)cc1	0.158
COc1ccc(C2C(C(=O)Nc3ccccc3Cl)=C(C)NC(C)=C2C(=O)Nc2ccccc2Cl)cc1	-0.3679
CC1=C(C(=O)Nc2ccc([N+](=O)[O-])cc2)C(c2ccc(Cl)cc2)C(C(=O)Nc2ccc([N+](=O)[O-])cc2)=C(C)N1	0.2126
CC1=C(C(=O)Nc2ccccc2Cl)C(c2ccccc2S)C(C(=O)Nc2ccccc2Cl)=C(C)N1	-0.954
CC1=C(C(=O)Nc2cccc([N+](=O)[O-])c2)C(c2ccccc2O)C(C(=O)Nc2cccc([N+](=O)[O-])c2)=C(C)N1	1.0606
CSc1ccc(C2C(C(=O)Nc3ccc([N+](=O)[O-])cc3)=C(C)NC(C)=C2C(=O)Nc2ccc([N+](=O)[O-])cc2)cc1	1.5096
CC1=C(C(=O)Nc2ccc(C)cc2C)C(c2ccccc2)C(C(=O)Nc2ccc(C)cc2C)=C(C)N1	-0.865
CC1=C(C(=O)Nc2ccccc2Cl)C(c2ccccc2Cl)C(C(=O)Nc2ccccc2Cl)=C(C)N1	-0.6585
CC1=C(C(=O)Nc2ccc(C)cc2C)C(c2cccc([N+](=O)[O-])c2)C(C(=O)Nc2ccc(C)cc2C)=C(C)N1	0.0521
CC1=C(C(=O)Nc2cccc([N+](=O)[O-])c2)C(c2ccccc2)C(C(=O)Nc2cccc([N+](=O)[O-])c2)=C(C)N1	1.1949
COc1ccc(C2C(C(=O)Nc3cc(C)ccc3C)=C(C)NC(C)=C2C(=O)Nc2cc(C)ccc2C)cc1	-0.158
COc1ccccc1NC(=O)C1=C(C)NC(C)=C(C(=O)Nc2ccccc2OC)C1c1ccc(Cl)cc1Cl	1.0047
COc1ccccc1NC(=O)C1=C(C)NC(C)=C(C(=O)Nc2ccccc2OC)C1c1ccc(SC)cc1	1.1233
CSc1ccc(C2C(C(=O)Nc3cccc([N+](=O)[O-])c3)=C(C)NC(C)=C2C(=O)Nc2cccc([N+](=O)[O-])c2)cc1	1.6901
CC1=C(C(=O)Nc2cccc([N+](=O)[O-])c2)C(c2ccccc2Cl)C(C(=O)Nc2cccc([N+](=O)[O-])c2)=C(C)N1	1.5096
CC1=C(C(=O)Nc2ccc(Cl)cc2)C(c2cccc([N+](=O)[O-])c2)C(C(=O)Nc2ccc(Cl)cc2)=C(C)N1	-0.3888
CSc1ccc(C2C(C(=O)Nc3ccccc3Cl)=C(C)NC(C)=C2C(=O)Nc2ccccc2Cl)cc1	0.55
COc1cc(C2C(C(=O)Nc3ccc(Cl)cc3)=C(C)NC(C)=C2C(=O)Nc2ccc(Cl)cc2)cc(OC)c1OC	1.1949
COc1ccc(C2C(C(=O)Nc3ccc(Cl)cc3)=C(C)NC(C)=C2C(=O)Nc2ccc(Cl)cc2)c(O)c1	0.63
CC1=C(C(=O)Nc2ccccc2Cl)C(c2ccc(Cl)cc2)C(C(=O)Nc2ccccc2Cl)=C(C)N1	-0.6886
